In patent US20220008438A1 (priority 2020, published 2022):

What was measured:
[1] = mechanically ventilated adult patients with moderate-to-severe ARDS, confirmed Covid-19 infection; cited from earlier work
[2] = in vivo, cited from earlier work
HIV-1 protease = HIV-1 protease (Human immunodeficiency virus type 1 group M subtype B, UniProt P04585); settings: in vitro; cited from earlier work
primary HIV-1 isolated = experiment: HIV-1 replication in MT2 cell line assays; type: cell-based
Procedure: The total destruction of the viral culture was observed from concentrations of 25 μg/ml of TMA's Maslinic acid, while between 5 and 20 μg/ml, a decrease in viability was observed between 57% and 19%.

murine macrophages = settings: cited from earlier work

SMILES | effectiveness, share of cases [1] [%] | values in the biological fluids [2] | activity against the enzyme isolated from the HIV-1 protease (HIV-1 protease) | concentration giving total destruction of the viral culture (primary HIV-1 isolated) [µg/mL] | cytopathic effect (primary HIV-1 isolated; MT2 cell line, 25 μg/ml) | level of p24 antigen in the culture supernatant (primary HIV-1 isolated; MT2 cell line, 25 μg/ml) | cytopathic effect (primary HIV-1 isolated; MT2 cell line, 30 μg/ml) | p24 antigen (primary HIV-1 isolated; MT2 cell line, 30 μg/ml) | inhibitory effect on replication (primary HIV-1 isolated; between 5 and 20 μg/ml, cultures infected with different amounts of HIV-1) | bioavailability compared ([2]; human) | pro-inflammatory cytokine generation (murine macrophages) | bioavailability (in vivo) [%]
C[C@@H]1C[C@H]2[C@@H]3CCC4=CC(=O)C=C[C@]4(C)[C@@]3(F)[C@@H](O)C[C@]2(C)[C@@]1(O)C(=O)CO [Dexametasone] | 33 |  |  |  |  |  |  |  |  |  |  | 
CC1(C)CC[C@]2(C(=O)O)CC[C@]3(C)C(=CC[C@@H]4[C@@]5(C)CC[C@H](O)C(C)(C)[C@@H]5CC[C@]43C)[C@@H]2C1 [OA, Oleanolic acid] |  | increased in the biological fluids in a dose-dependent manner |  |  |  |  |  |  |  |  |  | 
CC1(C)CC[C@]2(C(=O)O)CC[C@]3(C)C(=CC[C@@H]4[C@@]5(C)C[C@@H](O)[C@H](O)C(C)(C)[C@@H]5CC[C@]43C)[C@@H]2C1 [Maslinic acid, 2-alfa,3-betadihydroxy-28-carboxiolean-12-eno] |  | increased in the biological fluids in a dose-dependent manner | has in vitro activity | ≥ 25 | decrease was detected | decrease was detected | absence total cytopathic effect | decrease in p24 antigen | did not produce any inhibitory effect | higher than that of OA | strong reduction | 60
